{
  "source": "patent US11944429B2",
  "about": "“Automatically classifying animal behavior” (President and Fellows of Harvard College, priority 2015, dated 2024)",
  "test_system": "mice",
  "test": "Innate behavioral response to odorant in odor box (3D depth imaging, AR-HMM)",
  "format": "in vivo, mouse",
  "data": [
    {"smiles": "CC1=NC(C)SC1C", "note": "(stereo not drawn) [TMT]", "values": [
      {"measurement": "behavioral response to odor-containing quadrant", "setting": "TMT delivered to one quadrant of the box via olfactometer", "value": "avoided the quadrant containing the predator cue and displayed prolonged periods of immobility"},
      {"measurement": "per frame entropy rate with self-transitions", "setting": "after TMT exposure", "value": "0.64±0.02", "unit": "bits"},
      {"measurement": "per frame entropy rate without self-transitions", "setting": "after TMT exposure", "value": "3.66±0.08", "unit": "bits"},
      {"measurement": "number of times the most commonly-expressed freezing trigram was expressed", "setting": "after TMT exposure, in 300 minutes of imaging", "value": 716, "unit": "times"},
      {"measurement": "average during-sequence velocity of freezing sequences", "setting": "mice in square box, TMT 5% delivered to one quadrant, newly concatenated pausing modules", "value": "−0.14±0.54", "unit": "mm/sec"},
      {"measurement": "behavioral modules introduced or eliminated relative to control", "setting": "n=15 in TMT, n=25 control, model co-trained", "value": "no new modules were introduced or eliminated relative to control"}
    ]}
  ]
}
